{
  "source": "EPA's ToxValDB 9.5",
  "test_system": "Rattus norvegicus",
  "conditions": "oral",
  "key": {"[1]": {"conditions": "chronic, duration: 14 weeks, M, Sprague-Dawley, Hematological: 45% increase in non-segmented neutrophils"}, "[2]": {"conditions": "chronic, duration: 104 weeks, F, Sprague-Dawley, Body Weight: 14% reduction in final body weight"}, "[3]": {"conditions": "chronic, duration: 104 weeks, M, Sprague-Dawley, Hepatic: Hepatocellular hypertrophy at ?0.1 mg/kg/day / single cell necrosis and cystic degeneration at […]"}, "[4]": {"conditions": "developmental, duration: 20 days, Sprague-Dawley, Developmental: Reduced serum T4 in pups at 1 mg/kg/day / approximately 60% survival at weaning versus 80% in controls at 2 mg/kg/day"}, "[5]": {"conditions": "developmental, duration: 21 days, F, Sprague-Dawley, Developmental: ~30% increased locomotor activity and concurrent failure to habituate to test environment in male pups on PND 17"}, "[6]": {"conditions": "reproduction developmental, duration: 19 days, F, Sprague-Dawley, Body Weight: Decreased mean body weight gain, 10% at 2 mg/kg/day and 33% at 5 mg/kg/day"}, "[7]": {"conditions": "reproduction developmental, duration: 67 days, F, Sprague-Dawley, Body Weight: 22% reduction in body weight gain during premating / food consumption reduced […]"}, "[8]": {"conditions": "reproduction developmental, duration: 84 days, M/F, Sprague-Dawley, Body Weight: >10% reduction in body weight"}, "[9]": {"conditions": "short-term, duration: 28 days, F, Sprague-Dawley, Hematological: Decreased red blood cells (8.9%), hemoglobin (10%), hematocrit (8.8%)"}, "[10]": {"conditions": "short-term, duration: 28 days, M/F, Sprague-Dawley, Endocrine: Decreased T4 level (82% in males / 48% in females)"}},
  "data": [
    {"compound": "O=S(=O)([O-])C(F)(F)C(F)(F)C(F)(F)C(F)(F)C(F)(F)C(F)(F)C(F)(F)C(F)(F)F.[K+]", "note": "[Potassium perfluorooctanesulfonate]", "values": [
      {"measurement": "LOAEL", "setting": "acute, duration: 1 days, F, Sprague-Dawley, Endocrine: Transient decrease in serum TT4 (24, 38, and 53% after 2, 6, and 24 hours, respectively)", "result": 15, "unit": "mg/kg-day"},
      {"measurement": "NOAEL", "setting": "acute, duration: 1 days, M, Sprague-Dawley", "result": 10.3, "unit": "mg/kg-day"},
      {"measurement": "NOAEL", "setting": "chronic, duration: 14 weeks, F, Sprague-Dawley, Immunotoxicological: No histological alterations + Neurological: No histological alterations", "result": 1.56, "unit": "mg/kg-day"},
      {"measurement": "LOAEL", "setting": "[1]", "result": 1.33, "unit": "mg/kg-day"},
      {"measurement": "NOAEL", "setting": "[1]", "result": 0.34, "unit": "mg/kg-day"},
      {"measurement": "NOAEL", "setting": "chronic, duration: 14 weeks, M, Sprague-Dawley, Hepatic: Increased absolute and relative liver weight / increased serum ALT / hepatocyte hypertrophy and vacuolation at 1.33/1.55 mg/kg/…", "result": 1.33, "unit": "mg/kg-day"},
      {"measurement": "LOAEL", "setting": "[2]", "result": 1.04, "unit": "mg/kg-day"},
      {"measurement": "NOAEL", "setting": "[2]", "result": 0.25, "unit": "mg/kg-day"},
      {"measurement": "NOAEL", "setting": "chronic, duration: 104 weeks, M/F, Sprague-Dawley, Immunotoxicological: No histological alterations + Neurological: No histological alterations + Reproductive: No histological alterations", "result": 1.04, "unit": "mg/kg-day"},
      {"measurement": "LOAEL", "setting": "[3]", "result": 1.04, "unit": "mg/kg-day"},
      {"measurement": "NOAEL", "setting": "[3]", "result": 0.25, "unit": "mg/kg-day"},
      {"measurement": "LOAEL", "setting": "chronic, duration: 91 days, M, Sprague-Dawley, Endocrine: 42% decrease in total T4 levels", "result": 0.27, "unit": "mg/kg-day"},
      {"measurement": "LOAEL", "setting": "developmental, duration: 2 days, F, Sprague-Dawley, Developmental: Decreased neonatal survival (82% of controls on PND 1)", "result": 25, "unit": "mg/kg-day"},
      {"measurement": "LOAEL", "setting": "developmental, duration: 2 days, F, Sprague-Dawley, Developmental: Increased neonatal mortality", "result": 25, "unit": "mg/kg-day"},
      {"measurement": "LOAEL", "setting": "developmental, duration: 4 days, Sprague-Dawley, Body Weight: Weight loss during treatment when treated on GDs 2-5 (22%) or 6-9 (17%) + Developmental: Decreased neonatal survival (90% …", "result": 25, "unit": "mg/kg-day"},
      {"measurement": "LOAEL", "setting": "developmental, duration: 19 days, F, Sprague-Dawley, Developmental: Increased incidences of cleft palate", "result": 10, "unit": "mg/kg-day"},
      {"measurement": "LOAEL", "setting": "[4]", "result": 2, "unit": "mg/kg-day"},
      {"measurement": "NOAEL", "setting": "[4]", "result": 1, "unit": "mg/kg-day"},
      {"measurement": "NOAEL", "setting": "developmental, duration: 21 days, F, Sprague-Dawley", "result": 1, "unit": "mg/kg-day"},
      {"measurement": "LOAEL", "setting": "developmental, duration: 21 days, F, Sprague-Dawley, Developmental: 2.1-fold increased fetal thyroid cell proliferation on GD 20", "result": 1, "unit": "mg/kg-day"},
      {"measurement": "LOAEL", "setting": "[5]", "result": 1, "unit": "mg/kg-day"},
      {"measurement": "NOAEL", "setting": "[5]", "result": 0.3, "unit": "mg/kg-day"},
      {"measurement": "LOAEL", "setting": "developmental, duration: 67 days, F, Sprague-Dawley, >10% decrease in mean pup weight per litter on PND 5 at ?0.4 mg/kg/day / ~50% decrease mean pup survival per litter on PND 5 at ?1.6 mg/kg/…", "result": 1.6, "unit": "mg/kg-day"},
      {"measurement": "LOAEL", "setting": "developmental, duration: 67 days, F, Sprague-Dawley, Developmental: >10% decrease in mean pup weight per litter on PND 5 at ?0.4 mg/kg/day / ~50% decrease mean pup survival per litter on PND 5…", "result": 0.4, "unit": "mg/kg-day"},
      {"measurement": "NOAEL", "setting": "developmental, duration: 84 days, M/F, Sprague-Dawley, Developmental: Delayed eye opening and transient decrease in F2 pup body weight (13%) on LDs 7-14 at ?0.4 mg/kg/day / decreased pup …", "result": 0.1, "unit": "mg/kg-day"},
      {"measurement": "LOAEL", "setting": "developmental, duration: 90 days, F, Sprague-Dawley, Increased pup mortality during PNDs 1-4", "result": 1.6, "unit": "mg/kg-day"},
      {"measurement": "LOAEL", "setting": "developmental, duration: 91 days, F, Sprague-Dawley, Developmental: 19-36% reduced serum T4 levels in pups on PNDs 21-35 after gestationand/or postnatal-only exposure", "result": 3.2, "unit": "mg/kg-day"},
      {"measurement": "NOAEL", "setting": "reproduction developmental, duration: 19 days, F, Sprague-Dawley", "result": 10, "unit": "mg/kg-day"},
      {"measurement": "LOAEL", "setting": "[6]", "result": 2, "unit": "mg/kg-day"},
      {"measurement": "NOAEL", "setting": "[6]", "result": 1, "unit": "mg/kg-day"},
      {"measurement": "LOAEL", "setting": "reproduction developmental, duration: 19 days, F, Sprague-Dawley, Endocrine: Reduced total and free T4 and T3", "result": 1, "unit": "mg/kg-day"},
      {"measurement": "LOAEL", "setting": "[7]", "result": 2, "unit": "mg/kg-day"},
      {"measurement": "NOAEL", "setting": "[7]", "result": 1.6, "unit": "mg/kg-day"},
      {"measurement": "LOAEL", "setting": "[8]", "result": 3.2, "unit": "mg/kg-day"},
      {"measurement": "NOAEL", "setting": "[8]", "result": 1.6, "unit": "mg/kg-day"},
      {"measurement": "NOAEL", "setting": "reproduction developmental, duration: 84 days, M/F, Sprague-Dawley, Reproductive: No alterations in mating and fertility parameters", "result": 3.2, "unit": "mg/kg-day"},
      {"measurement": "NOAEL", "setting": "short-term, duration: 4 weeks, F, Sprague-Dawley, Immunotoxicological: No histological alterations + Neurological: No histological alterations", "result": 1.77, "unit": "mg/kg-day"},
      {"measurement": "NOAEL", "setting": "short-term, duration: 4 weeks, M, Sprague-Dawley, Reproductive: No histological alterations", "result": 1.51, "unit": "mg/kg-day"},
      {"measurement": "NOAEL", "setting": "short-term, duration: 7 days, M, Sprague-Dawley, Hepatic: Decreased serum cholesterol (38%) and triglyceride (55%) levels at 8.17 mg/kg/day", "result": 8.17, "unit": "mg/kg-day"},
      {"measurement": "NOAEL", "setting": "short-term, duration: 7 days, M, Sprague-Dawley, Hepatic: Hepatocellular hypertrophy, increased liver weight, decreased serum cholesterol at ?1.79 mg/kg/day", "result": 8.96, "unit": "mg/kg-day"},
      {"measurement": "NOAEL", "setting": "short-term, duration: 7 days, M, Wistar, Hepatic: 40% increase in absolute liver weight", "result": 15, "unit": "mg/kg-day"},
      {"measurement": "LOAEL", "setting": "[9]", "result": 7.01, "unit": "mg/kg-day"},
      {"measurement": "NOAEL", "setting": "[9]", "result": 3.47, "unit": "mg/kg-day"},
      {"measurement": "LOAEL", "setting": "[10]", "result": 1.23, "unit": "mg/kg-day"},
      {"measurement": "NOAEL", "setting": "[10]", "result": 0.14, "unit": "mg/kg-day"},
      {"measurement": "NOAEL", "setting": "short-term, duration: 28 days, M, Sprague-Dawley, Hepatic: Hepatocellular hypertrophy and decreased serum cholesterol levels at ?1.54 mg/kg/day", "result": 7.34, "unit": "mg/kg-day"},
      {"measurement": "NOAEL", "setting": "short-term, duration: 28 days, M, Sprague-Dawley, Hepatic: Increased relative liver weight / hepatocellular hypertrophy in males at 5.89 mg/kg/day", "result": 5.89, "unit": "mg/kg-day"},
      {"measurement": "NOAEL", "setting": "subchronic, duration: 67 days, F, Sprague-Dawley, Hepatic: 16% reduction in serum total cholesterol on PND 5 at ?0.4 mg/kg/day / increased liver weight in dams at ?0.8 mg/kg/day + …", "result": 2, "unit": "mg/kg-day"}
    ]}
  ]
}
